From patent publication US20020137141A1, “Short peptides from the 'A-region' of protein kinases which selectively modulate protein kinase activity” (Children's Medical Center Corporation, priority 2000, published 2002) come the findings set out here.

Where no end group is shown, it is not given here.

One test concerns neural crest cells. Nature of the test: Emigration of neural crest cells from explanted neural primordia. The class given is cell-based, quail. An excerpt: The procedure for explants of neural primordia is described in greater detail in Sela-Donefeld and Kalcheim (Development, 125(21): 4749-4762 (1999)), the teaching of which was incorporated herein by reference.
The trunk region of 16 somite-old quail embryos was separately sectioned at the level of the segmental plate plus the last 2 epithelial somite pairs. Neural primordia consisting of the neural tube and premigratory neural crest cells were isolated from adjacent tissues with 25% pancreatin in PBS, transferred to PBS supplemented with 5% newborn calf serum to stop enzymatic activity and washed in serum-free culture medium prior to explanation. The neural primordia were then explanted onto multi-well chamber slides that were pre-coated with fibronectin (50 μg/ml) for 1 hour. The neural primordia were cultured in 50 μl of either serum-free CHO—S-SFMII medium (GibcoBRL, USA) or condition medium of noggin producing-CHO cells, in the absence or presence of the tested compound, in a final concentration of 5 μM and incubated in a humid chamber for 24 hours. At the end of the incubation, the primordia were gently washed with PBS and fixed with Bouin's fluid, washed 3 times with PBS, dried and covered.

For another test, the system named is adipose cells. Nature of the test: Glucose uptake (3H-deoxy glucose) in fresh rat adipocytes. The class given is cell-based. The settings on record: for glucose uptake: 10 μM compound, fresh adipocytes, without insulin, vs control (vehicle). As to the method:
To 3 ml of KRBH buffer with 10 mg collagenase, 3g epididymal fat pad (from 2-3 male rats lightly ether anesthesised and then decapitated) was introduced. The fat was cut up with scissors. The pieces of fat were swirled and shaken in the collagenase solution in a 37° C. water bath, set at 100-150 repetitions/minute, for approximately 1 hour with swirling every 15 minutes while digesting and every 5 minutes towards the end. About 6 ml of buffer was then added to the vial. The content of the vial was gently squeezed through a 250 μ nylon mesh into a 50 ml plastic tube. The residual fat tissue was washed (the total volume for each wash was 15 ml): the tube was centrifuged whereby the adipose cells floated at the top of the liquid. The buffer was removed using a syringe with polyethylene capillary. Buffer was added to get 15 ml and clumps of adipose cells were broken up by gently mixing up and down. This procedure was repeated for a total of 4 centrifugations: 3 centrifugations at 1000 rpm with the last centrifugation at 2000 rpm. At this point, the buffer was removed. Fresh buffer was added to the cell suspension to form a cytocrit of 5-10%. The cells were rolled at 10 rpm at 37° C. for 1 hour.
50 μl 0.1% BSA in PBS was placed with compounds comprising IRK-derived peptides (final concentrations: 0.1-50 μM) or the peptide-vehicle in each 2 ml plastic tube in duplicates. 950 μl aliquots of the cell suspension were added to the tubes. After incubation for 1 hour at 37° C. in a roller (10 rpm), 200 ul of insulin was added to certain tubes to get final concentrations of 2.5-1000 uU/ml and than 200 μl of KRBH buffer containing 3H—Deoxy Glucose (approx. 1200 dpm/μl) was added to each tube. After 30 minutes incubation with the 3H-DOG and insulin at 37° C., 200 μl aliquots were transferred to microcentrifuge tubes containing 200 μl Dinonyl phthalate in duplicates. Cells were rapidly separated from the aqueous buffer by centrifugation at 10,000 g for 60 sec. The cells were isolated in the top layer of the dinonyl phthalate phase. The upper part of the tube (which contains the cells) was cut and transferred to scintillation tube. 4 ml of scintillation liquid was added.
Cell associated radioactivity was counted in a liquid scintillation beta counter.
Glucose-uptake was measured in fresh adipocytes, incubated with or without insulin (10 μ/ml) as described above, in the absence (vehicle) or the presence of 10 μM of a compound K094A107 (“107”) SEQ ID NO: 102; or K094A205 (“205”) (SEQ ID NO: 123), which was kept in a reducing environment (5 to 25 μM DTT) As a comparison the glucose uptake with insulin alone was determined.

Another test relates to IRK. As to the kind of experiment: Western blot, phosphorylation of IRK in H4 cells. Format: cell-based, rat. On the set-up: dose or concentration left out as unconfirmed. The conditions noted are these: pre-incubated 3 hours with compound, FIG. 9. As to the method:
(§1) All experiments were carried out with H4 cells (Rat hepatoma cell line).Cells were pre-incubated with the compound K094A107 comprising an IRK-derived peptide (SEQ ID NO: 102)(10mM) or the corresponding controls for 3 hours ( one control was control -no treatment vehicle only, the second control was an irrelevant peptide derived from a non-A-region of a kinase), and with human recombinant insulin (100 nM), for 5 minutes. The cells were then lysed and cell lysates were subjected to Western Blot analysis followed by detection with ECL.
(§2) The membrane was incubated overnight with a primary polyclonal Anti-PhosphoPKB (phospho-serine 473 PKB)Ab, or with an antibody for IRK and then, after 3 washes with TBST, with secondary HRP antibody was added for 1 hour. In the second gel the membrane was incubated overnight with a primary monoclonal PhosphoTyrosine Kinase (PY99) Ab that labels phosphorylated tyrosine, and then after 3 washes with TBST, a secondary antibody was added for 1 hour.
On the technique in general: A western blot detects proteins with antibodies after separation by electrophoresis.

The subject of the next test is PKB. As to the kind of experiment: Western blot, phosphorylation of PKB in H4 cells. The class given is cell-based, rat. On the set-up: dose or concentration left out as unconfirmed. The conditions noted are these: pre-incubated 3 hours with compound, phospho-serine 473, FIG. 9. As to the method: as §1, §2
The test system of another test is Erk1. Nature of the test: Western blot, phosphorylation of downstream substrate Erk1. Format: cell-based, rat. The settings on record: dose dependent, compared with insulin, FIG. 10. On the procedure:
as §1, §2
(§3) A similar experiment was conducted with the difference being that the substrates tested were the substrates of the kinase associated signal transduction that are more downstream in the pathway: Erk1, and p38-MAP.

Another test deals with p38-MAP. As to the kind of experiment: Western blot, phosphorylation of downstream substrate p38-MAP. The class given is cell-based, rat. The settings on record: dose dependent, compared with insulin, FIG. 10. As to the method: as §1, §2, §3
A further test concerns IRK substrates. Nature of the test: Western blot of FIG. 10 as worded in the figure legend. The class given is cell-based, rat. The settings on record: FIG. 10 legend. On the procedure: as §1, §3
A further test concerns male Sabra rats. As to the kind of experiment: Blood glucose in streptozotocin-induced diabetic rats. The class given is in vivo, rat. The conditions noted are these: 10 mg/animal I.P., insulin 0.125 units/animal one hour later. As to the method: Diabetes was induced in male Sabra rats (150-200 gr) by I.P. injection of streptozotocin (Sigma, S0130) 60 mg/Kg dissolved in ph 4.5 saline (Biochemical and biophysical research comunications 197(3): 1549-1555 (1993)), which is known to destroy insulin-secreting pancreatic cells. After 2-7 days the rats were all diabetic, as determined by blood glucose level above 200 mg/dl which was measured with glucometer.
12 rats were divided into 3 groups, with homogenic blood glucose level, each consisting of 4 animals
Group I was administered with K094A107 (SEQ ID NO: 102) 10 mg/animal (I.P.) followed by administration of insulin 0.125 units/animal (low concentration of insulin that nearly doesn't give any significant decrease in blood glucose level) one hour later.
Group II was administered with K094A205 (A-region in SEQ ID NO: 123) 10 mg/animal (I.P.) followed by insulin 0.125 units/animal one hour later.
Group III served as control and was administered I.P. with vehicle (NAC/DMSO-DIDV) followed by insulin 0.125 units/animal one hour later.

For the molecule “K098A100: compound comprising ALK-3-derived A-region peptide (GLMRHENILGF; Alk3)”, in the test on neural crest cells (5 μM compound, 24 hours, condition medium of noggin producing-CHO cells), the “neural crest migration in the presence of noggin” value was “overcomes this inhibition and induces neural crest migration”. For the same molecule, the “number of migrating neural crest cells” value with neural crest cells (5 μM compound, 24 hours, serum-free medium, absence of noggin) was “the number of migrating cells is higher”.
As for “K094A107: compound comprising an IRK A-region derived peptide, N-myristylated and C-amidated (GGFTCHHVVRL-NH2; not fully specified (N-terminus))”, the “glucose uptake in combination with insulin” value in the test on adipose cells (10 μM compound in the presence of 10 μU/ml insulin) is given as “synergistic”. The glucose uptake result in the test on adipose cells is “increase glucose uptake levels beyond the level of control glucose uptake”. Moreover, the “glucose uptake, dose dependence” value with adipose cells (different concentrations of the compound (FIG. 6B)) is listed as “induce glucose uptake in a dose-dependent manner”. Moreover, the “phosphorylation of IRK” value in the test on IRK is on record as “able to increase phosphorylation”. In the test on PKB, the “phosphorylation of PKB” value is “able to increase phosphorylation”. Besides, the “phosphorylation of ERK1” value in the test with Erk1 is “increase the phosphorylation of ERK1 and p38-MAP in a dose dependent manner”. The “phosphorylation of p38-MAP” value in the test on p38-MAP was “increase the phosphorylation of ERK1 and p38-MAP in a dose dependent manner”. The “phosphorylation of IRK substrates” value with IRK substrates was “decrease of phosphorylation of IRK substrates, in a dose dependent manner”.
As to “K094A205: compound comprising IRK A-region derived sequence, kept in a reducing environment (GGFTCHHVVRL; IRK)”, in the test on adipose cells, the glucose uptake result is reported as “increase glucose uptake levels beyond the level of control glucose uptake”. Besides, in the test with male Sabra rats, the “time at which effect of a single administration on blood glucose was still notable” value is no less than 24 h. Moreover, the glucose blood levels entry in the test on male Sabra rats (measured for 24 hours, vs vehicle plus insulin) is reported as “marked reduction”.

B1: Noggin: specific inhibitor of BMP-4; condition medium of noggin producing-CHO cells (protein, UniProt Q13253 28-232, looked up)
Noggin: QHYLHIRPAPSDNLPLVDLIEHPDPIFDPKEKDLNETLLRSLLGGHYDPGFMATSPPEDRPGGGGGAAGGAEDLAELDQLLRQRPSGAMPSEIKGLEFSEGLAQGKKQRLSKKLRRKLQMWLWSQTFCPVLYAWNDLGSRFWPRYVKVGSCFSKRSCSVPEGMVCKPSKSVHLTVLRWRCQRRGGQRCGWIPIQYPIISECKCSC
modifications: CHO conditioned medium
notes: condition medium of noggin producing-CHO cells
As for B1, in the test with neural crest cells (noggin alone, no compound), the neural crest migration entry is “blocks the neural crest migration”.
